Experimental data as given in ChEMBL document CHEMBL5523757, “Discovery, Synthesis, and Activity Evaluation of Novel Five-Membered Sulfur-Containing Heterocyclic Nucleosides as Potential Anticancer Agents In Vitro and In Vivo” (J Med Chem, 2024).

Legend:
Format in all cases: functional, cell-based
HeLa = assay: Antiproliferative activity against human HeLa cells assessed as inhibition of cell growth incubated for 48 hrs by CCK-8 assay
HCT-116 = assay: Antiproliferative activity against human HCT-116 cells assessed as inhibition of cell growth incubated for 48 hrs by CCK-8 assay
MCF7 = assay: Antiproliferative activity against human MCF7 cells assessed as inhibition of cell growth incubated for 48 hrs by CCK-8 assay
PANC-1 = assay: Antiproliferative activity against human PANC-1 cells assessed as inhibition of cell growth incubated for 48 hrs by CCK-8 assay
HepG2 = assay: Antiproliferative activity against human HepG2 cells assessed as inhibition of cell growth incubated for 48 hrs by CCK-8 assay
A549 = assay: Antiproliferative activity against human A549 cells assessed as inhibition of cell growth incubated for 48 hrs by CCK-8 assay

Row | SMILES | IC50 (HeLa; Homo sapiens, HeLa, 48 h) [µM] | IC50 (HCT-116; Homo sapiens, HCT-116, 48 h) [µM] | IC50 (MCF7; Homo sapiens, MCF7, 48 h) [µM] | further results
1 | CCOC(=O)C[C@@H]1CSC[C@]1(C(=O)OCC)n1cnc2c(OCc3ccccc3)ncnc21 (racemic) | > 50 | > 50 | > 50 | –
2 | CCOC(=O)C[C@@H]1CSC[C@]1(C(=O)OCC)n1cnc2c(Cl)nc(F)nc21 (racemic) | 14.5 | 15.9 | 27.9 | –
3 | CCOC(=O)C[C@H]1CSC[C@]1(C(=O)OCC)n1cnc2c(N3CCCCC3)ncnc21 (racemic) | > 50 | 22.8 | 23.8 | –
4 | CCOC(=O)C[C@@H]1CSC[C@]1(C(=O)OCC)n1cnc2c(N(CC)CC)ncnc21 (racemic) | > 50 | 41.5 | > 50 | –
5 | CCOC(=O)C[C@@H]1CSC[C@]1(C(=O)OCC)n1cnc2c(Cl)ncnc21 (racemic) | 12.5 | 19.4 | 43.5 | –
6 | CCOC(=O)C[C@H]1CSC[C@]1(C(=O)OCC)n1cnc2c(N3CCCC3)nc(Cl)nc21 (racemic) | > 50 | 46.6 | 38.3 | –
7 | CCOC(=O)C[C@@H]1CSC[C@@]1(C(=O)OCC)n1cnc2c(Cl)nc(Cl)nc21 | 2.78 | 3.69 | 4.54 | IC50 (PANC-1; Homo sapiens, PANC-1, 48 h): 11.1 µM; IC50 (HepG2; Homo sapiens, HepG2, 48 h): 23.8 µM; IC50 (A549; Homo sapiens, A549, 48 h): 41.4 µM
8 | CCOC(=O)C[C@H]1CSC[C@]1(C(=O)OCC)n1cnc2c(Cl)ncnc21 (racemic) | 6.81 | 15.5 | 12 | –
9 | CCOC(=O)C[C@H]1CSC[C@]1(C(=O)OC)n1cnc2c(Cl)ncnc21 (racemic) | 11.6 | 19.2 | > 50 | –
10 | CCOC(=O)C[C@H]1CSC[C@]1(C(=O)OCC)n1cnc2c(N3CCCC3)ncnc21 (racemic) | > 50 | > 50 | > 50 | –
11 | CCOC(=O)C[C@H]1C[S+]([O-])C[C@]1(C(=O)OCC)n1cnc2c(Cl)nc(Cl)nc21 (stereo not given in full) | 10.5 | 17.1 | 25.9 | –
12 | CCOC(=O)C[C@@H]1CSC[C@]1(C(=O)OCC)n1cnc2cncnc21 (racemic) | > 50 | > 50 | > 50 | –
13 | CCOC(=O)C[C@@H]1CSC[C@]1(C(=O)OCC)n1cnc2c(Cl)nc(Cl)nc21 (racemic) | 9.5 | 6.89 | 4.06 | –
14 | CCOC(=O)C[C@@H]1CSC[C@]1(C(=O)OCC)n1cnc2c(OC)ncnc21 (racemic) | > 50 | > 50 | > 50 | –
15 | CCOC(=O)C[C@@H]1CSC[C@]1(C(=O)OCC)n1cnc2c(Br)ncnc21 (racemic) | 49.6 | > 50 | > 50 | –
16 | CCOC(=O)C[C@@H]1CSC[C@]1(C(=O)OCC)n1cnc2c(N3CCCCC3)nc(Cl)nc21 (racemic) | > 50 | > 50 | 34 | –
17 | CCOC(=O)C[C@H]1CSC[C@]1(C(=O)OCC)n1cnc2c(Cl)nc(F)nc21 (racemic) | 8.8 | 11 | 22.9 | –
18 | CCOC(=O)C[C@H]1CSC[C@]1(C(=O)OCC)n1cnc2c(Br)ncnc21 (racemic) | 14.4 | 30.1 | 19.4 | –
19 | O=c1[nH]cc(F)c(=O)[nH]1 [FLUOROURACIL] | 9.75 | 8.75 | 11.6 | IC50 (PANC-1; Homo sapiens, PANC-1, 48 h): 44.1 µM; IC50 (HepG2; Homo sapiens, HepG2, 48 h): 12.9 µM
20 | CCOC(=O)C[C@H]1CS(=O)(=O)C[C@]1(C(=O)OCC)n1cnc2c(Cl)nc(Cl)nc21 | 7.67 | 11.2 | 16.2 | –
21 | CCOC(=O)C[C@@H]1CSC[C@]1(C(=O)OCC)n1cnc2c(OCC)ncnc21 (racemic) | > 50 | 19.8 | > 50 | –
22 | CCOC(=O)C[C@H]1CSC[C@]1(C(=O)OCC)n1cnc2cncnc21 (racemic) | > 50 | > 50 | > 50 | –

Row | SMILES | IC50 (HeLa; Homo sapiens, HeLa, 48 h) [µM] | IC50 (HCT-116; Homo sapiens, HCT-116, 48 h) [µM] | IC50 (MCF7; Homo sapiens, MCF7, 48 h) [µM] | further results
23 | CCOC(=O)C[C@@H]1CSC[C@]1(C(=O)OC)n1cnc2c(Cl)ncnc21 (racemic) | 12.5 | 31.8 | > 50 | –
24 | CCOC(=O)C[C@H]1CSC[C@]1(C(=O)OCC)n1cnc2c(N3CCCCC3)nc(Cl)nc21 (racemic) | 22.4 | 22.6 | > 50 | –
25 | CCOC(=O)C[C@@H]1CSC[C@]1(C(=O)OCC)n1cnc2c(N3CCCC3)nc(Cl)nc21 (racemic) | 38.3 | 34 | > 50 | –
26 | CCOC(=O)C[C@@H]1CSC[C@]1(C(=O)OCC)n1cnc2c(N(C)C)ncnc21 (racemic) | > 50 | > 50 | > 50 | –
27 | CCOC(=O)C[C@H]1CSC[C@]1(C(=O)OCC)n1cnc2c(-c3ccccc3)ncnc21 (racemic) | 26.2 | 17.3 | > 50 | –
28 | CCOC(=O)C[C@H]1CSC[C@]1(C(=O)OCC)n1cnc2c(N3CCOCC3)ncnc21 (racemic) | > 50 | > 50 | > 50 | –
29 | CCCSc1ncnc2c1ncn2[C@@]1(C(=O)OCC)CSC[C@H]1CC(=O)OCC (racemic) | > 50 | 38.5 | 23.5 | –
30 | CCOC(=O)C[C@@H]1CSC[C@]1(C(=O)OCC)n1cnc2cnc(Cl)nc21 (racemic) | > 50 | > 50 | > 50 | –
31 | CCOC(=O)C[C@H]1CSC[C@]1(C(=O)OCC)n1cnc2c(Cl)nc(Cl)nc21 | – | – | – | IC50 (HeLa; hela): 7.43 µM; IC50 (HCT-116; hct-116): 4.16 µM; IC50 (PANC-1; panc-1): 27.5 µM; IC50 (MCF7; mcf7): 5.82 µM; IC50 (HepG2; hepg2): > 50 µM; IC50 (A549; a549): > 50 µM
32 | CCOC(=O)C[C@H]1CSC[C@]1(C(=O)OCC)n1cnc2c(OCc3ccccc3)ncnc21 (racemic) | 13.7 | 13.2 | 12.7 | –
33 | CCOC(=O)C[C@@H]1CSC[C@]1(C(=O)OCC)n1cnc2c(N3CCOCC3)ncnc21 (racemic) | > 50 | > 50 | > 50 | –
34 | CCOC(=O)C[C@H]1CSC[C@]1(C(=O)OCC)n1cnc2cnc(Cl)nc21 (racemic) | > 50 | > 50 | > 50 | –
35 | CCOC(=O)C[C@H]1CSC[C@]1(C(=O)OCC)n1cnc2c(OCC)ncnc21 (racemic) | > 50 | > 50 | > 50 | –
36 | CCOC(=O)C[C@H]1CSC[C@]1(C(=O)OC(C)C)n1cnc2c(Cl)ncnc21 (racemic) | 9.99 | 14.7 | 13 | –
37 | CCOC(=O)C[C@H]1CSC[C@]1(C(=O)OCC)n1cnc2c(N(CC)CC)ncnc21 (racemic) | > 50 | > 50 | > 50 | –
38 | CCOC(=O)C[C@@H]1CSC[C@]1(C(=O)OC(C)C)n1cnc2c(Cl)ncnc21 (racemic) | 13.6 | 38.2 | 44.8 | –
39 | CCOC(=O)C[C@@H]1CSC[C@]1(C(=O)OCC)n1cnc2c(-c3ccccc3)ncnc21 (racemic) | 42.9 | 25.1 | 19.4 | –
40 | CCOC(=O)C[C@@H]1CSC[C@]1(C(=O)OCC)n1cnc2c(N3CCCC3)ncnc21 (racemic) | > 50 | > 50 | > 50 | –
41 | CCOC(=O)C[C@H]1CSC[C@]1(C(=O)OCC)n1cnc2c(OC)ncnc21 (racemic) | > 50 | > 50 | > 50 | –
42 | CCCSc1ncnc2c1ncn2[C@@]1(C(=O)OCC)CSC[C@@H]1CC(=O)OCC (racemic) | 37.2 | 25.9 | 30.9 | –
43 | CCOC(=O)C[C@@H]1CSC[C@]1(C(=O)OCC)n1cnc2c(N3CCCCC3)ncnc21 (racemic) | > 50 | 32 | 42.2 | –
44 | CCOC(=O)C[C@H]1CSC[C@]1(C(=O)OCC)n1cnc2c(N(C)C)ncnc21 (racemic) | > 50 | > 50 | > 50 | –
